Data reported in publication PMC6479519, “New Quinoline-Based Heterocycles as Anticancer Agents Targeting Bcl-2” (Molecules, 2019).
Like-named read-outs stand apart in the source and are kept apart here.

Molecular target: T1, His-tagged Bcl-2 (Homo sapiens, UniProt P10415)
T1 construct: gene BCL2; commercial His-tagged Bcl-2 protein (Abcam); tag kept
Assay: competitive ELISA, His-tagged Bcl-2 vs immobilised biotinylated Bim peptide
Type: binding
Details: read-out: ELISA IC50 (μM) ^1

[1] = competition with Bim peptide (residues 81–106), 20 nM Bcl-2, PBS, room temperature

T1 sequence (P10415 whole entry): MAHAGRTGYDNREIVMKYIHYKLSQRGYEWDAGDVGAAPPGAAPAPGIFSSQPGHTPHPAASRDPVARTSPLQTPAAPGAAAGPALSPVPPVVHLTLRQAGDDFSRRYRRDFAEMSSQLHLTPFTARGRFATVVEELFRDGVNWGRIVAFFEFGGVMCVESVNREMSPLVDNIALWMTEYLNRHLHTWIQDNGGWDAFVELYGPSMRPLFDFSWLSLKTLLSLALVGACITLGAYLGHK

Row | SMILES | IC50 [1] [µM] | IC50 [µM]
1 | Cc1ccc(Nc2nnc(-c3cc(-c4ccc(Br)cc4)nc4ccccc34)o2)cc1 [6c] | 1.93 ± 0.007 | –
2 | O=[N+]([O-])c1ccc(Nc2nnc(-c3cc(-c4ccc(Br)cc4)nc4ccccc34)o2)cc1 [6d] | – | 14.5 ± 1.2
3 | COc1ccc2nc(-c3ccc(Br)cc3)cc(-c3nnc(Nc4ccc([N+](=O)[O-])cc4)o3)c2c1 [6i] | 0.15 ± 0.02 | –
